From US12157741B2, “Macrocyclic inhibitors of DYRK1A” (DANA-FARBER CANCER INSTITUTE, INC., priority 2018, dated 2024)
Where two headings read alike, the source gives them in different places.

How the values were obtained:
various enzymes [1] = biological target: various enzymes (Homo sapiens, UniProt P00533, G719S)
Protocol: (§1) Ambit profiling from Eurofins (formerly Discoverx) was conducted in accordance with the manufacturer's instructions.

various enzymes [2] = biological target: various enzymes (Homo sapiens, UniProt Q9Y6E0); details: MST3; 1 uM
Protocol: as §1

various enzymes [3] = biological target: T1, various enzymes (Homo sapiens, UniProt P29323); details: EPHB2; 1 uM
T1 sequence (P29323 19-1055): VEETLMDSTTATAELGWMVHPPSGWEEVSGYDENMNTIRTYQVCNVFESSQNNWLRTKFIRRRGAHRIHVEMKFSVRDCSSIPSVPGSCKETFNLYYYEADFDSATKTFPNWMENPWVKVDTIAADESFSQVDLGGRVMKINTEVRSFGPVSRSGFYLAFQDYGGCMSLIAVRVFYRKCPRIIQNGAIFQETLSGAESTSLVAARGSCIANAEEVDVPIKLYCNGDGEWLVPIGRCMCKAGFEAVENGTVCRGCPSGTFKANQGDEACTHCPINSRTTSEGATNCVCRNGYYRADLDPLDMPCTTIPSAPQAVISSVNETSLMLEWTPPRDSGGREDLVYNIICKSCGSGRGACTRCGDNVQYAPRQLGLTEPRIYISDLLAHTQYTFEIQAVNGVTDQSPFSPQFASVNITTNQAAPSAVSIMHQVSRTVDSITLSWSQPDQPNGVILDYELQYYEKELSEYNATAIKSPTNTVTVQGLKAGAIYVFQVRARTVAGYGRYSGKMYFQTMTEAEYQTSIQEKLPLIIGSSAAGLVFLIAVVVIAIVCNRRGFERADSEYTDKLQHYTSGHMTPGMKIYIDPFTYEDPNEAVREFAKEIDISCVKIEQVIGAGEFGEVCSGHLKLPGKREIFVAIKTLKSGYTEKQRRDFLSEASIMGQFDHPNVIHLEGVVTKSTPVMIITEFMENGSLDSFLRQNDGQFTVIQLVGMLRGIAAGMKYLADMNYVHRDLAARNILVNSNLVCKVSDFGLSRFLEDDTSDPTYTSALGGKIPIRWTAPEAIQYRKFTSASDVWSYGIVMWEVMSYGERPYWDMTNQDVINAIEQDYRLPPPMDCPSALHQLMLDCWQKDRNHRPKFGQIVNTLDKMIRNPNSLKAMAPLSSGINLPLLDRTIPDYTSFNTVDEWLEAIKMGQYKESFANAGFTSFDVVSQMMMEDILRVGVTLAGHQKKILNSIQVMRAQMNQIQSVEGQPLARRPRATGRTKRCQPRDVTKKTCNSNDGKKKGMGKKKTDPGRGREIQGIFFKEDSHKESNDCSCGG
Protocol: as §1

various enzymes [4] = biological target: various enzymes (Homo sapiens, UniProt P00533, DEL752-759); details: EGFR(S752-I759del); 1 uM
Protocol: as §1

various enzymes [5] = biological target: T2, various enzymes (Homo sapiens, UniProt O14733); details: MKK7; 1 uM
T2 sequence (O14733 1-419): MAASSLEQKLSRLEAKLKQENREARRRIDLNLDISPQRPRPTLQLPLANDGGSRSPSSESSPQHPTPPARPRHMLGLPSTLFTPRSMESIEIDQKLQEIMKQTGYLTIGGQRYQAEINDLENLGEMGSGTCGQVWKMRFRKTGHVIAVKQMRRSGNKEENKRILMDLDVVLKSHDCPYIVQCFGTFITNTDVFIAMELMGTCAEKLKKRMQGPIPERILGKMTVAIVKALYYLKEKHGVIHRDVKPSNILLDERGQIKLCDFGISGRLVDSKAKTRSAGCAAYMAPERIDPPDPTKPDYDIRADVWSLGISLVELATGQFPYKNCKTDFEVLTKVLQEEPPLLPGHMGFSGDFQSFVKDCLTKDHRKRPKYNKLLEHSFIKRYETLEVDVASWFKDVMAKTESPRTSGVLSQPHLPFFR
Protocol: as §1

various enzymes [6] = biological target: various enzymes (Homo sapiens, UniProt P41240); details: CSK; 1 uM
Protocol: as §1

various enzymes [7] = biological target: various enzymes (Homo sapiens, UniProt Q9HCP0); details: CSNK1G1; 1 uM
Protocol: as §1

various enzymes [8] = biological target: T3, various enzymes (Homo sapiens, UniProt Q6PHR2); details: ULK3; 1 uM
T3 sequence (Q6PHR2 1-472): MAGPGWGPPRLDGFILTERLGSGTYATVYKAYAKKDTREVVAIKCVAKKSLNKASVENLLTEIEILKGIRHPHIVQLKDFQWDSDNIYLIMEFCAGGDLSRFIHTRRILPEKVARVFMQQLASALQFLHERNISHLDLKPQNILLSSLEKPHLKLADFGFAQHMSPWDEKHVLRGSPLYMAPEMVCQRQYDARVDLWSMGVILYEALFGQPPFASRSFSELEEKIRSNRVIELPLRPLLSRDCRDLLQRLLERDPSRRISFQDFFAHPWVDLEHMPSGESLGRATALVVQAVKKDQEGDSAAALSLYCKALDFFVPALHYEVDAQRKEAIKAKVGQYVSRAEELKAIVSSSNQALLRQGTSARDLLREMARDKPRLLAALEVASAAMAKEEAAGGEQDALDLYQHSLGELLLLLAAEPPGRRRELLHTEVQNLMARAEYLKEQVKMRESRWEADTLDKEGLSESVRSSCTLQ
Protocol: as §1

various enzymes [9] = biological target: various enzymes (Homo sapiens, UniProt Q13705); details: ACVR2B; 1 uM
Protocol: as §1

various enzymes [10] = biological target: various enzymes (Homo sapiens, UniProt P29597); details: 1 uM
Protocol: as §1

various enzymes [11] = biological target: various enzymes (Homo sapiens, UniProt P08581); details: MET; 1 uM
Protocol: as §1

various enzymes [12] = biological target: various enzymes (Homo sapiens, UniProt O94921); details: PFTK1; 1 uM
Protocol: as §1

various enzymes [13] = biological target: various enzymes (Homo sapiens, UniProt P00533, DEL747-752/P753S)
Protocol: as §1

various enzymes [14] = biological target: various enzymes (Homo sapiens, UniProt Q9H4A3); details: WNK1; 1 uM
Protocol: as §1

various enzymes [15] = biological target: various enzymes (Homo sapiens, UniProt Q9BWU1); details: CDK11; 1 uM
Protocol: as §1

various enzymes [16] = biological target: various enzymes (Homo sapiens, UniProt P00533, DEL746-750); details: EGFR(E746-A750del); 1 uM
Protocol: as §1

Chain of various enzymes (Homo sapiens, UniProt P29597) (P29597 whole entry): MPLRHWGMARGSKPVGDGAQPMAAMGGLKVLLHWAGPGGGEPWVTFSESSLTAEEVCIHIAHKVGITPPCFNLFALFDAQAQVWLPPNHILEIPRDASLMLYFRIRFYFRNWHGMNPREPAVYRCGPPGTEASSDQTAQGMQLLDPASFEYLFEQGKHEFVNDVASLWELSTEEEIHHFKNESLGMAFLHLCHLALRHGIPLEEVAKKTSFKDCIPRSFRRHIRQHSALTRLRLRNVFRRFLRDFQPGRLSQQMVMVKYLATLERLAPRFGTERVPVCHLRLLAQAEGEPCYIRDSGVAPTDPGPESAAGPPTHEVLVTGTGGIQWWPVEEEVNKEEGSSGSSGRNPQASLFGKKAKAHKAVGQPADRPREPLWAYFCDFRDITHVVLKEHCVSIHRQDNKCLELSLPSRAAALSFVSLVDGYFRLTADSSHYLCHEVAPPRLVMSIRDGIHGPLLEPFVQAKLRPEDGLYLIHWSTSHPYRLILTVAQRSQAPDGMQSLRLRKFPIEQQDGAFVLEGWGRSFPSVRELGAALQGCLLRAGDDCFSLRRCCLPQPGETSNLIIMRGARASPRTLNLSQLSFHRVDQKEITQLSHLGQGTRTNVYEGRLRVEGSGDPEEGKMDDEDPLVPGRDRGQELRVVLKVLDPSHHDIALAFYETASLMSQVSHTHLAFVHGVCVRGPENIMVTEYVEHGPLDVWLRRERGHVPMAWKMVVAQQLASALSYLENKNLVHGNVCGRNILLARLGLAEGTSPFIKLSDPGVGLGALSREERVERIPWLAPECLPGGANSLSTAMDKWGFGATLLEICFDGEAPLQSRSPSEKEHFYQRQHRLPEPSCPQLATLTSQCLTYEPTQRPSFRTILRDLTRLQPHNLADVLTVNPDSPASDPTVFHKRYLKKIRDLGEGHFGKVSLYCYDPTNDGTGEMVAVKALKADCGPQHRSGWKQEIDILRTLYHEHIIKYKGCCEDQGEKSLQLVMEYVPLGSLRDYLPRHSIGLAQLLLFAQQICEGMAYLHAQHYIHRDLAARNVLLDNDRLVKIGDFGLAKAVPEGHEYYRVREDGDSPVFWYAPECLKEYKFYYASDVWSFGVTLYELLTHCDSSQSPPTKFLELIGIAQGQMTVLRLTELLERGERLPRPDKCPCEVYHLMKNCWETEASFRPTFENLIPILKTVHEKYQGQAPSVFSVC
Chain of various enzymes (Homo sapiens, UniProt O94921) (O94921 whole entry): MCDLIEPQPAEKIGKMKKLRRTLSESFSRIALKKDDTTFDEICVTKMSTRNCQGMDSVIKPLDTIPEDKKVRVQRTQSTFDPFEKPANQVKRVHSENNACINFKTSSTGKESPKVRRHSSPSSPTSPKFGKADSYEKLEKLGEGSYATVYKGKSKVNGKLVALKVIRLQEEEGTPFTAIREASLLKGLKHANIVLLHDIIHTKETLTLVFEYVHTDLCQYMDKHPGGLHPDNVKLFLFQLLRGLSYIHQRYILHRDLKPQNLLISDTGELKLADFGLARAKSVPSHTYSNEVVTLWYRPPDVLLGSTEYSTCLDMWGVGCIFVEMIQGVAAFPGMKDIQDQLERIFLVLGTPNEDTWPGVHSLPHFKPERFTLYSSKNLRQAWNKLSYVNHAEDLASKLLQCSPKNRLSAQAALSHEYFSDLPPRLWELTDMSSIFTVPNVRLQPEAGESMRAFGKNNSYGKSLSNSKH
Chain of various enzymes (Homo sapiens, UniProt Q13705) (Q13705 19-512): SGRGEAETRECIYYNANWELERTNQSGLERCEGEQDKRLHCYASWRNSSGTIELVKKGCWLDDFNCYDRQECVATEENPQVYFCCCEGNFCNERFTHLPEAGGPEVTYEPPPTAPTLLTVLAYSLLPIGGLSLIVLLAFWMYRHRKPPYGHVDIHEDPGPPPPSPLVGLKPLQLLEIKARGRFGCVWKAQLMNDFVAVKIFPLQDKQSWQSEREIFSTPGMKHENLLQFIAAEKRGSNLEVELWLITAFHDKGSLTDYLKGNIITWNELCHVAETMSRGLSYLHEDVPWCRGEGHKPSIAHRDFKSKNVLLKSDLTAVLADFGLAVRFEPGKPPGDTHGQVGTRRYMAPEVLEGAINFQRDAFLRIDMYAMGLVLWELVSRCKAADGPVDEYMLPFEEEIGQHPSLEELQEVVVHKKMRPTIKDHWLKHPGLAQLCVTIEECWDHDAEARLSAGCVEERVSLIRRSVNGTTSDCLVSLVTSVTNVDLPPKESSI
Chain of various enzymes (Homo sapiens, UniProt P08581) (P08581 25-1390): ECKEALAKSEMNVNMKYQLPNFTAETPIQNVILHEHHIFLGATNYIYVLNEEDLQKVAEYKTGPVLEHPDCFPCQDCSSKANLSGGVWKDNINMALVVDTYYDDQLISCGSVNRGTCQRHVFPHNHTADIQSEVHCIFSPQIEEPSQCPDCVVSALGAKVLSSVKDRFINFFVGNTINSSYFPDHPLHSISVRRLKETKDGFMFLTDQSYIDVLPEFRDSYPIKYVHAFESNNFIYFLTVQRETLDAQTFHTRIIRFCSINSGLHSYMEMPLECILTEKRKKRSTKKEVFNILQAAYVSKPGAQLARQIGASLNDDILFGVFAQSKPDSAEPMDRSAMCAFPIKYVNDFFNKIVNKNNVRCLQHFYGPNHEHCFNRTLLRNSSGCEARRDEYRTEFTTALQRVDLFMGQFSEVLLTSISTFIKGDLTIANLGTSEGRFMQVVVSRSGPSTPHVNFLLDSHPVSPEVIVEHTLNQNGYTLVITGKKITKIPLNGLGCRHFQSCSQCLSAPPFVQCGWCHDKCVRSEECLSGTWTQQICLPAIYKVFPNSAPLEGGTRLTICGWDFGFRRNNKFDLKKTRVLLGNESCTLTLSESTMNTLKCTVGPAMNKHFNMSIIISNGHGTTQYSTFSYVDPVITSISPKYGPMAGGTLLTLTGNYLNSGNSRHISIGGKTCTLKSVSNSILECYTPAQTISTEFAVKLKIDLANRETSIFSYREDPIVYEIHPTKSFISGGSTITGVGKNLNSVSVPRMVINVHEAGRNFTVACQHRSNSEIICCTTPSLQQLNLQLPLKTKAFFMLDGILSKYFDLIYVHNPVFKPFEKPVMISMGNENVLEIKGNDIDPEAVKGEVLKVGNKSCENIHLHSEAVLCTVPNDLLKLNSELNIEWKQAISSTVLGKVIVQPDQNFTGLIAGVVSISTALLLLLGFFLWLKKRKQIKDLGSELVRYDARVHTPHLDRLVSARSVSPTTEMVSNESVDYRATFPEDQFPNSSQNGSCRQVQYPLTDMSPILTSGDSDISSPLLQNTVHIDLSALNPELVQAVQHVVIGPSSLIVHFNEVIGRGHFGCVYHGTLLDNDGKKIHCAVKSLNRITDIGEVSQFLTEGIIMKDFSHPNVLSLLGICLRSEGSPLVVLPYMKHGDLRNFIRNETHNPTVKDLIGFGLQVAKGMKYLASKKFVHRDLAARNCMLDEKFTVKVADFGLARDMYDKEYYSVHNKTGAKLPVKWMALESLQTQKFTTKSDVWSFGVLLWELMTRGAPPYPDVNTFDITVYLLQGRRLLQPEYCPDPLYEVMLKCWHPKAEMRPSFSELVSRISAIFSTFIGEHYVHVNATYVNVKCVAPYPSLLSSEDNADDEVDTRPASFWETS
Chain of various enzymes (Homo sapiens, UniProt Q9Y6E0) (Q9Y6E0 whole entry): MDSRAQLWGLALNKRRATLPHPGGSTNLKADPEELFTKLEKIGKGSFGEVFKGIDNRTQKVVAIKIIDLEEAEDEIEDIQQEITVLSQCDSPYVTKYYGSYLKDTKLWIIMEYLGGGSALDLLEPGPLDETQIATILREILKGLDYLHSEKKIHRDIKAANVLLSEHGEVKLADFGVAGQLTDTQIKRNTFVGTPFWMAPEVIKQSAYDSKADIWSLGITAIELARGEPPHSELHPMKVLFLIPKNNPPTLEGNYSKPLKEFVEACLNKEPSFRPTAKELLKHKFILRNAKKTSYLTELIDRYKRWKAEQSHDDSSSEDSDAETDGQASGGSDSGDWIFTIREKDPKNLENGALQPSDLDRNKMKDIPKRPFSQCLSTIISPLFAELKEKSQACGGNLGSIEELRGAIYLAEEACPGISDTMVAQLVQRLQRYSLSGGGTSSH
Chain of various enzymes (Homo sapiens, UniProt Q9BWU1) (Q9BWU1 whole entry): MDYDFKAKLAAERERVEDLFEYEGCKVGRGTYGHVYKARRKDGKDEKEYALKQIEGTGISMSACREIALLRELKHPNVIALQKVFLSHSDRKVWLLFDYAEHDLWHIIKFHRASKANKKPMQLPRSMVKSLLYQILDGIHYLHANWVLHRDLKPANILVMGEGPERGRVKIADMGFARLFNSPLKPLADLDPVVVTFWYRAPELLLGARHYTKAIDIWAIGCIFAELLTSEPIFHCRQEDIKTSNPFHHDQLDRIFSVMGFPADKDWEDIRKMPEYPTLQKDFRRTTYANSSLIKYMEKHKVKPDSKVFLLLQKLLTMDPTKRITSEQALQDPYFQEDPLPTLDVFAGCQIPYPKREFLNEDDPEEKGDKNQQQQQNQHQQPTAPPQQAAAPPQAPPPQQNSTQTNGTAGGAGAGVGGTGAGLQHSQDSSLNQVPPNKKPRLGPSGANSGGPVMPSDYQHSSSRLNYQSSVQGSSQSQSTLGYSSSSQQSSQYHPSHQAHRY
Chain of various enzymes (Homo sapiens, UniProt Q9HCP0) (Q9HCP0 whole entry): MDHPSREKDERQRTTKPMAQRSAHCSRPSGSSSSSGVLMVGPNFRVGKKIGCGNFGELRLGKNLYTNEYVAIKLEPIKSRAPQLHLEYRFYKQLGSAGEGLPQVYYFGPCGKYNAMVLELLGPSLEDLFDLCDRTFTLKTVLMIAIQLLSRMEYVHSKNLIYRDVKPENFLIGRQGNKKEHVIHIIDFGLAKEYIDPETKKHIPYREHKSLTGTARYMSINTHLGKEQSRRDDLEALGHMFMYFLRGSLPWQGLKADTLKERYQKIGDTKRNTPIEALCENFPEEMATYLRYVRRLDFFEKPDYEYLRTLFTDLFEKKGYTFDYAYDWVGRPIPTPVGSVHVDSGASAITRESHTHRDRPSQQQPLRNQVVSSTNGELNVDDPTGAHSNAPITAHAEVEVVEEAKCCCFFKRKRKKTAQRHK

| Structure (SMILES) | Ambit profiling (various enzymes [1]; EGFR(G719S), 1 uM) | Ambit profiling (various enzymes [2]) | Ambit profiling (various enzymes [3]) | Ambit profiling (various enzymes [4]) | Ambit profiling (various enzymes [5]) | Ambit profiling (various enzymes [6]) | Ambit profiling (various enzymes [7]) | Ambit profiling (various enzymes [8]) | Ambit profiling (various enzymes [9]) | Ambit profiling (various enzymes [10]; TYK2(JH1domain-catalytic)) | Ambit profiling (various enzymes [10]; TYK2(JH2domain-pseudokinase)) | Ambit profiling (various enzymes [11]) | Ambit profiling (various enzymes [12]) | Ambit profiling (various enzymes [13]; EGFR(L747-S752del, P753S), 1 uM) | Ambit profiling (various enzymes [14]) | Ambit profiling (various enzymes [15]) | Ambit profiling (various enzymes [16]) | Ambit profiling (various enzymes [1]) | Ambit profiling (various enzymes [13]) |
| --- | --- | --- | --- | --- | --- | --- | --- | --- | --- | --- | --- | --- | --- | --- | --- | --- | --- | --- | --- |
| CN1Cc2nn(C)cc2-c2cnc3[nH]cc(c3c2)-c2cnn(c2)CCCC1=O [Compound 41, (Z)-31,5-dimethyl-11H,21H,31H-5-aza-2(3,5)-pyrrolo[2,3-b]pyridina-1(4,1),3(4,3)-dipyrazolacyclononaphan-6-one] | 100 | 39 | 80 | 100 | 28 | 63 | 84 | 5.6 | 65 | 2.3 | 100 | 30 | 69 | 100 | 95 | 84 | 100 |  |  |
| CN1Cc2nn(C)c(C#N)c2-c2cnc3[nH]cc(c3c2)-c2cn(nc2C(F)(F)F)CCCC1=O [Compound 48, (Z)-31,5-dimethyl-6-oxo-13-(trifluoromethyl)-11H,21H,31H-5-aza-2(3,5)-pyrrolo[2,3-b]pyridina-1(4,1),3(4,3)-dipyrazolacyclononaphane-35-carbonitrile] |  | 86 | 99 | 77 | 99 | 95 | 100 | 97 | 98 | 84 | 100 | 48 | 91 |  | 100 | 100 | 35 | 71 | 74 |
